Experimental data taken from the NIST ThermoML archive (doi:10.1021/je0497496).
“And” between values parts separate entries of the source, which are not always exact repeats. Identical values can stand only once. Numbers after ± are expanded uncertainties.

Conditions: for vapor or sublimation pressure: Closed cell (Static) method; for mass density: buoyancy

FCC(F)(F)F [1,1,1,2-tetrafluoroethane]
Liquid
Conditions	mass density	vapor or sublimation pressure
253.13 K	1358.69 ± 0.4 kg/m3 and 1358.7 ± 0.4 kg/m3	133.58 ± 1.1 kPa and 133.6 ± 1.1 kPa
262.99 K	1327.33 ± 0.4 kg/m3	200.47 ± 1.1 kPa
263 K	1327.31 ± 0.4 kg/m3	200.48 ± 1.1 kPa
273.31 K	1293.96 ± 0.39 kg/m3	295.5 ± 1.2 kPa
283.16 K	1260.66 ± 0.38 kg/m3	415.71 ± 1.3 kPa
283.17 K	1260.67 ± 0.38 kg/m3	415.71 ± 1.3 kPa
293.22 K	1225.34 ± 0.38 kg/m3 and 1225.33 ± 0.38 kg/m3	571.94 ± 1.5 kPa and 571.98 ± 1.5 kPa
303.25 K	1187.23 ± 0.37 kg/m3	771.67 ± 1.7 kPa
303.26 K	1187.22 ± 0.37 kg/m3	771.76 ± 1.7 kPa
313.18 K	1146.44 ± 0.37 kg/m3	1018.1 ± 2.1 kPa
323.19 K	1102.35 ± 0.36 kg/m3	1319.8 ± 2.5 kPa
323.2 K	1102.34 ± 0.36 kg/m3	1319.9 ± 2.5 kPa
333.16 K	1052.61 ± 0.37 kg/m3	1683 ± 3.1 kPa
333.17 K	1052.6 ± 0.37 kg/m3	1683.2 ± 3.1 kPa
343.03 K	997.103 ± 0.38 kg/m3	2110.6 ± 3.8 kPa
343.04 K	997.091 ± 0.38 kg/m3	2110.9 ± 3.8 kPa
353.16 K	928.313 ± 0.41 kg/m3 and 928.306 ± 0.41 kg/m3	2633.6 ± 4.7 kPa and 2633.7 ± 4.7 kPa
363.17 K	837.765 ± 0.43 kg/m3	3245.3 ± 5.6 kPa
363.18 K	837.734 ± 0.43 kg/m3	3245.5 ± 5.6 kPa

Fluid (supercritical or subcritical phases)
Conditions	mass density
262.98 K, 30.04 kPa	1.41703 ± 0.052 kg/m3
262.99 K, 30.02 kPa	1.41553 ± 0.052 kg/m3 and 1.41816 ± 0.052 kg/m3
262.99 K, 50.03 kPa	2.37378 ± 0.052 kg/m3
262.99 K, 80.08 kPa	3.83561 ± 0.053 kg/m3
262.99 K, 100.09 kPa	4.82696 ± 0.055 kg/m3
262.99 K, 150.06 kPa	7.37304 ± 0.055 kg/m3
273.31 K, 50 kPa	2.27757 ± 0.051 kg/m3 and 2.2813 ± 0.051 kg/m3
273.31 K, 100.01 kPa	4.6218 ± 0.052 kg/m3
273.31 K, 150.01 kPa	7.03559 ± 0.053 kg/m3
273.31 K, 200 kPa	9.53172 ± 0.055 kg/m3
273.32 K, 250 kPa	12.1179 ± 0.056 kg/m3
283.16 K, 100.09 kPa	4.4428 ± 0.051 kg/m3
283.16 K, 200.02 kPa	9.12611 ± 0.052 kg/m3
283.16 K, 300.08 kPa	14.1052 ± 0.054 kg/m3
283.17 K, 100.1 kPa	4.44579 ± 0.051 kg/m3
283.17 K, 350.92 kPa	16.7525 ± 0.056 kg/m3
293.21 K, 399.98 kPa	18.4354 ± 0.056 kg/m3
293.21 K, 500.02 kPa	23.7422 ± 0.057 kg/m3
293.22 K, 100.05 kPa	4.27783 ± 0.049 kg/m3 and 4.27519 ± 0.049 kg/m3
293.22 K, 200.05 kPa	8.76202 ± 0.05 kg/m3 and 8.75976 ± 0.05 kg/m3
293.22 K, 300.02 kPa	13.4608 ± 0.052 kg/m3
303.25 K, 100.02 kPa	4.1211 ± 0.048 kg/m3 and 4.12406 ± 0.048 kg/m3
303.26 K, 299.99 kPa	12.8979 ± 0.05 kg/m3
303.26 K, 499.91 kPa	22.542 ± 0.056 kg/m3
303.26 K, 711.4 kPa	34.0053 ± 0.059 kg/m3
313.17 K, 100.02 kPa	3.98495 ± 0.046 kg/m3 and 3.98345 ± 0.046 kg/m3
313.17 K, 200.04 kPa	8.11408 ± 0.048 kg/m3
313.17 K, 600.21 kPa	26.4214 ± 0.055 kg/m3
313.17 K, 902.11 kPa	42.8957 ± 0.062 kg/m3
313.18 K, 400.01 kPa	16.8674 ± 0.05 kg/m3
313.18 K, 800.41 kPa	37.0004 ± 0.059 kg/m3
323.19 K, 100.02 kPa	3.85767 ± 0.045 kg/m3 and 3.85694 ± 0.045 kg/m3
323.19 K, 500 kPa	20.6111 ± 0.051 kg/m3
323.19 K, 940.01 kPa	42.4962 ± 0.064 kg/m3
323.19 K, 1271.1 kPa	62.9174 ± 0.068 kg/m3
323.2 K, 300 kPa	11.9392 ± 0.047 kg/m3
323.2 K, 802.37 kPa	35.149 ± 0.054 kg/m3
333.16 K, 101.53 kPa	3.7964 ± 0.044 kg/m3
333.16 K, 303.79 kPa	11.6786 ± 0.045 kg/m3
333.16 K, 1500 kPa	73.4336 ± 0.072 kg/m3
333.17 K, 101.53 kPa	3.79264 ± 0.044 kg/m3
333.17 K, 502.7 kPa	19.9182 ± 0.049 kg/m3
333.17 K, 801.13 kPa	33.4094 ± 0.052 kg/m3
333.17 K, 1009.4 kPa	43.8443 ± 0.059 kg/m3
333.17 K, 1300.4 kPa	60.3214 ± 0.066 kg/m3
343.03 K, 136.28 kPa	4.96602 ± 0.043 kg/m3
343.03 K, 1500 kPa	68.2379 ± 0.068 kg/m3
343.03 K, 1704.5 kPa	81.5238 ± 0.075 kg/m3
343.04 K, 136.71 kPa	4.97127 ± 0.043 kg/m3
343.04 K, 303.78 kPa	11.2865 ± 0.044 kg/m3
343.04 K, 520.7 kPa	19.9261 ± 0.047 kg/m3
343.04 K, 849.11 kPa	34.1538 ± 0.05 kg/m3
343.04 K, 1093.8 kPa	45.8644 ± 0.055 kg/m3
343.04 K, 1300.4 kPa	56.7069 ± 0.061 kg/m3
343.04 K, 1900.2 kPa	96.118 ± 0.087 kg/m3
353.16 K, 136.72 kPa	4.81465 ± 0.043 kg/m3
353.16 K, 500.97 kPa	18.447 ± 0.045 kg/m3
353.16 K, 2000.3 kPa	94.8889 ± 0.078 kg/m3
353.16 K, 2200.5 kPa	110.087 ± 0.093 kg/m3
353.17 K, 1000.4 kPa	39.3925 ± 0.052 kg/m3
353.17 K, 1508.8 kPa	64.532 ± 0.061 kg/m3
353.17 K, 2408.1 kPa	128.821 ± 0.11 kg/m3
363.17 K, 153.67 kPa	5.26494 ± 0.041 kg/m3
363.17 K, 500.5 kPa	17.8052 ± 0.044 kg/m3
363.17 K, 1001.1 kPa	37.7848 ± 0.048 kg/m3
363.17 K, 3101.3 kPa	188.758 ± 0.19 kg/m3
363.18 K, 1500.8 kPa	60.7126 ± 0.055 kg/m3
363.18 K, 2003.2 kPa	88.1709 ± 0.069 kg/m3
363.18 K, 2500.4 kPa	122.731 ± 0.095 kg/m3
363.18 K, 2800.4 kPa	150.158 ± 0.13 kg/m3
363.18 K, 3002.1 kPa	174.085 ± 0.16 kg/m3
